Laboratory results as given in the Deep4Chem optical property database.
Values belong to the compound of their own block, whether it stands above or below them.

Experiment: photoluminescence quantum yield (fraction); solvent given as SMILES

SMILES: COc1cc(/C=C/c2nc3ccccc3o2)c(OC)cc1/C=C/c1nc(C)nc(C)n1
- photoluminescence quantum yield (in C1CCOC1): 0.89
- photoluminescence quantum yield (in CC#N): 0.85
- photoluminescence quantum yield (in ClC(Cl)Cl): 0.86
- photoluminescence quantum yield (in ClCCl): 0.86

SMILES: COc1ccc(-c2nnc(-c3cc(-n4c5ccccc5c5ccccc54)c(-n4c5ccccc5c5ccccc54)cc3-c3nnc(-c4ccc(OC)cc4)o3)o2)cc1
- photoluminescence quantum yield (in Cc1ccccc1): 0.47

SMILES: N#Cc1c(-n2c3ccccc3c3cc(I)ccc32)c(C#N)c(-n2c3ccccc3c3cc(I)ccc32)c(-n2c3ccccc3c3cc(I)ccc32)c1-n1c2ccccc2c2cc(I)ccc21
- photoluminescence quantum yield (in Cc1ccccc1): 0.78

SMILES: CC1=N/C(=C\c2cc(C#N)cc(N(C)C)c2)C(=O)N1C
- photoluminescence quantum yield (in C1CCOC1): 0.14
- photoluminescence quantum yield (in CC#N): 0.05
- photoluminescence quantum yield (in CCCCCC): 0.45

SMILES: Cc1ccc(-c2nc(-c3ccc(-c4nc(-c5ccc(C)cc5)c(-c5ccc(C)cc5)[nH]4)cc3)[nH]c2-c2ccc(C)cc2)cc1
- photoluminescence quantum yield (in CS(C)=O): 0.96

SMILES: COc1ccc(-c2n[n+]3c(s2)N=C(c2ccccc2)O[B-]3(F)F)cc1
- photoluminescence quantum yield (in Cc1ccccc1): 0.16

SMILES: CCC1=C(C)C2=C(c3c4ccccc4c(C)c4ccccc34)c3c(C)c(CC)c(C)n3[B-](F)(F)[N+]2=C1C
- photoluminescence quantum yield (in CC#N): 0.054
- photoluminescence quantum yield (in CCCCCC): 0.883
- photoluminescence quantum yield (in CCO): 0.314
- photoluminescence quantum yield (in CN(C)C=O): 0.111
- photoluminescence quantum yield (in Cc1ccccc1): 0.863
- photoluminescence quantum yield (in ClCCl): 0.667

SMILES: CN(C)c1ccc2[c](c1)[Sn]([CH3])([CH3])[C]1=CC(=[N+](C)C)C=CC1=C2
- photoluminescence quantum yield (in O): 0.43

SMILES: c1ccc(-c2ccc(-c3cc(-c4ccc(-c5ccccc5)cc4)cc(-c4ccc(-c5ccccc5)cc4)c3)cc2)cc1
- photoluminescence quantum yield (in C1COCCO1): 0.27

SMILES: CC1=CC(C)=[N+]2C1=C(c1c3ccccc3c(C)c3ccccc13)c1c(C)cc(C)n1[B-]2(F)F
- photoluminescence quantum yield (in CC#N): 0.002
- photoluminescence quantum yield (in CCCCCC): 0.91
- photoluminescence quantum yield (in CCO): 0.005
- photoluminescence quantum yield (in CN(C)C=O): 0.003
- photoluminescence quantum yield (in Cc1ccccc1): 0.95
- photoluminescence quantum yield (in ClCCl): 0.011

SMILES: COc1ccc(/C=C(\C)c2nc3ccccc3s2)cc1
- photoluminescence quantum yield (in C1CCCCC1): 0.001

SMILES: CC1=CC(C)=[N+]2C1=C(c1ccc(-c3ccc(OS(=O)(=O)c4ccc([N+](=O)[O-])cc4[N+](=O)[O-])cc3)s1)c1c(C)cc(C)n1[B-]2(F)F
- photoluminescence quantum yield (in Cc1ccccc1): 0.066

SMILES: CCOC(=O)c1nn(-c2ccc(OC)cc2)nc1N1CCCC1
- photoluminescence quantum yield (in CC#N): 0.731

SMILES: CC(C)(C)c1ccc2c(c1)c1cc(C(C)(C)C)ccc1n2-c1ccc(-c2nc(-c3ccc(-n4c5ccc(C(C)(C)C)cc5c5cc(C(C)(C)C)ccc54)cc3)nc(-c3ccc(P(=O)(c4ccccc4)c4ccccc4)cc3)n2)cc1
- photoluminescence quantum yield (in O=P(c1ccccc1)(c1ccccc1)c1ccccc1Oc1ccccc1P(=O)(c1ccccc1)c1ccccc1): 0.74

The next lines start with the values.

- photoluminescence quantum yield (in ClCCl): 0.45
SMILES: CCCCCCCCOc1ccc(C#Cc2ccc3oc4ccccc4c3c2)c(OCCCCCCCC)c1

- photoluminescence quantum yield (in C1CCOC1): 0.32
SMILES: CCC1(CC)c2cc(Br)ccc2-c2c1c1c(c3c2C(CC)(CC)c2cc(-c4cccs4)ccc2-3)C(CC)(CC)c2cc(Br)ccc2-1

- photoluminescence quantum yield (in ClCCl): 0.25
SMILES: CCCCN(CCCC)c1ccc(C#Cc2cc(C#Cc3ccc(C#N)cc3)c(C#Cc3ccc(N(CCCC)CCCC)cc3)cc2C#Cc2ccc(C#N)cc2)cc1

- photoluminescence quantum yield (in CC#N): 0.45
SMILES: CCOC(=O)c1c2c3c(ccc(Cl)c3c3cc4c(cc13)[Si](C)(C)O[Si]4(C)C)N(C)C2=O

- photoluminescence quantum yield (in ClCCl): 0.02
SMILES: CC(C)(C)NC(=O)c1cccc2ccc3c4ccc(Cl)cc4c4cc(Cl)ccc4c3c12

- photoluminescence quantum yield (in ClCCl): 0.51
SMILES: CCCCC(CC)Cn1c2cc(C#N)ccc2c2ccc(C#Cc3ccc4ccc5ccc(C#Cc6ccc7c8ccc(C#N)cc8n(CC(CC)CCCC)c7c6)c6ccc3c4c56)cc21 (stereo unspecified)

- photoluminescence quantum yield (in ClC(Cl)Cl): 0.72
SMILES: CC1=C2CCc3ccccc3C2=[N+]2C1=C(c1ccc(I)cc1)c1c(C)c3c(n1[B-]2(F)F)-c1ccccc1CC3

- photoluminescence quantum yield (in CN(C)C=O): 0.8
SMILES: C(=C\c1ccc(-c2nnc(-c3ccccc3)o2)cc1)/c1ccc(-c2nnc(-c3ccccc3)o2)cc1

- photoluminescence quantum yield (in ClCCl): 0.07
SMILES: CCN(CC)c1ccc2cc(/C=C3\CCCc4c3[o+]c3cc(N(CC)CC)ccc3c4-c3ccccc3C(=O)O)c(=O)oc2c1

- photoluminescence quantum yield (in C1CCOC1): 0.61
- photoluminescence quantum yield (in CN(C)C=O): 0.19
SMILES: O=C(O)c1ccc(C(=O)O)c2cc3ccccc3cc12

- photoluminescence quantum yield (in ClCCl): 0.22
SMILES: Cc1cc(-c2cccc3ccccc23)cc(C)[o+]1
